Measurements: ChEMBL document CHEMBL1137169, “P4 cap modified tetrapeptidyl alpha-ketoamides as potent HCV NS3 protease inhibitors” (Bioorg Med Chem Lett, 2004)

Tests used:
NS3 = NS3 (Hepatitis C virus, UniProt A3EZJ3); test: Inhibitory potency against HCV NS3 protease; parameters: species or system Hepacivirus hominis
Huh-7 = test: Cytotoxic concentration against Huh-7 liver cell line; type: functional; details: Homo sapiens
Cell line = test: inhibitory concentration in luciferase based replicon assay; type: functional; details: Homo sapiens
[1] = biological target: T1, Neutrophil elastase (Homo sapiens) (UniProt P08246); test: Selectivity for human neutrophil elastase
T1 sequence (whole entry): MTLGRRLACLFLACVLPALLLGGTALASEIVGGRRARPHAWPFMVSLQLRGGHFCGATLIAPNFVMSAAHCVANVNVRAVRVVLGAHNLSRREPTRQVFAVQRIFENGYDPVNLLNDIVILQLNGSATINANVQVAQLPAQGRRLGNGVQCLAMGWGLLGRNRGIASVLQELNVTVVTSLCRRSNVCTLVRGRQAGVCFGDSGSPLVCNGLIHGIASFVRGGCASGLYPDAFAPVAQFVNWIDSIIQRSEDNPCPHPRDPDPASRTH

Chain of NS3 (A3EZJ3 whole entry): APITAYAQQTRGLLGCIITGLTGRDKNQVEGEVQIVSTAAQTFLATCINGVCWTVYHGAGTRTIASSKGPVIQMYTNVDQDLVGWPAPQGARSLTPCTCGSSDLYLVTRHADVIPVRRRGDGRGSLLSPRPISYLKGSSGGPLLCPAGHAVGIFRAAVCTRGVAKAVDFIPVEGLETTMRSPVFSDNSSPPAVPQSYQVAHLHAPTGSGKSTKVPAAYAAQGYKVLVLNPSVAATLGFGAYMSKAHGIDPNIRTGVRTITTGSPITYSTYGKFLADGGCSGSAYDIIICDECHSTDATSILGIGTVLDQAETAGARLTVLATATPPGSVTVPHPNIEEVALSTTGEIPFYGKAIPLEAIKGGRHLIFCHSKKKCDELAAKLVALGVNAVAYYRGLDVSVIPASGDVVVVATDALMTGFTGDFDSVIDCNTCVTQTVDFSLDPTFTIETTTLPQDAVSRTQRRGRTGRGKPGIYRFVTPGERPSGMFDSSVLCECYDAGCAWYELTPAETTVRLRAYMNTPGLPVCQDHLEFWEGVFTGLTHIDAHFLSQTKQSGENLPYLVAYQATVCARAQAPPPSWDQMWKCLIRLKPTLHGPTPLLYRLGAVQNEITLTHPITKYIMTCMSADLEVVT

Row | SMILES | Ki (NS3) | CC50 (Huh-7) | IC50 (Cell line) | Selectivity [1]
1 | CCC(C=O)NC(=O)[C@@H]1CC(OC(=O)c2ccc3ccccc3c2)CN1C(=O)[C@@H](NC(=O)[C@@H](NC(=O)CCCCC(=O)O)C(C)C)C(C)C (some centres undefined) | 110 nM |  |  | 
2 | CCC[C@H](NC(=O)[C@@H]1C2CCCC2CN1C(=O)[C@@H](NC(=O)[C@@H](NC(=O)Cc1nn[nH]n1)[C@@H](C)CC)C(C)(C)C)C(=O)C(=O)NC1CC1 (some centres undefined) | 3110 nM | > 50000 nM | > 50000 nM | 
3 | CCCC(NC(=O)[C@@H]1CC(OC(=O)N2CCc3ccccc3C2)CN1C(=O)[C@@H](NC(=O)[C@@H](NC(=O)CCCCC(=O)OC)C(C)C)C(C)C)C(=O)C(=O)NC1CC1 (some centres undefined) | 271 nM |  |  | 
4 | CCCC(NC(=O)[C@@H]1C2CCCC2CN1C(=O)[C@@H](NC(=O)[C@@H](NC(=O)CCCCc1nnn[nH]1)C(C)C)C(C)C)C(=O)C(=O)Nc1ccccc1 (some centres undefined) | 22 nM | > 10000 nM |  | 1180
5 | CCCC(NC(=O)[C@@H]1C2CCCC2CN1C(=O)[C@@H](NC(=O)[C@@H](NC(=O)Cc1nn[nH]n1)C1CCCCC1)C(C)(C)C)C(=O)C(=O)NC1CC1 (some centres undefined) | 30 nM | > 50000 nM | > 50000 nM | 
6 | CCCC(NC(=O)[C@@H]1C2CCCC2CN1C(=O)[C@@H](NC(=O)[C@@H](NC(=O)CCCCc1nnn[nH]1)C(C)C)C(C)C)C(=O)C(=O)N[C@@H](C)c1ccccc1 (stereo in doubt; 12) | 31 nM | > 50000 nM | > 50000 nM | 
7 | CCCC(NC(=O)[C@@H]1CC(OC(=O)N2CCc3ccccc3C2)CN1C(=O)[C@@H](NC(=O)[C@@H](NC(=O)CCCCC(=O)NC)C(C)C)C(C)C)C(=O)C(=O)NC1CC1 (some centres undefined) | 193 nM | > 10000 nM |  | 4
8 | CCC[C@H](NC(=O)[C@@H]1C2CCCC2CN1C(=O)[C@@H](NC(=O)[C@@H](NC(=O)CCCCc1nn[nH]n1)C(C)C)C(C)C)C(=O)C(=O)NC1CC1 (some centres undefined) | 170 nM |  |  | 
9 | CCCC(NC(=O)[C@@H]1CC(OC(=O)N2CCc3ccccc3C2)CN1C(=O)[C@@H](NC(=O)[C@@H](NC(=O)CCCCC(=O)O)C(C)C)C(C)C)C(=O)C(=O)NC1CC1 (some centres undefined) | 65 nM | > 50000 nM | > 50000 nM | 
10 | CCCC(NC(=O)[C@@H]1C2CCCC2CN1C(=O)[C@@H](NC(=O)[C@@H](NC(=O)CCCCc1nnn[nH]1)C(C)C)C(C)C)C(=O)C(=O)N[C@@H](C)c1ccccc1 (stereo in doubt; 13) | 27 nM |  |  | 
11 | CCC[C@H](NC(=O)[C@@H]1C2CCCC2CN1C(=O)[C@@H](NC(=O)[C@@H](NC(=O)CCCCc1nn[nH]n1)C(C)C)C(C)C)C(=O)C(=O)NC(=O)CN (some centres undefined) | 82 nM |  |  | 
12 | CCC[C@H](NC(=O)[C@@H]1C2CCCC2CN1C(=O)[C@@H](NC(=O)[C@@H](NC(=O)Cc1nn[nH]n1)C(C)C)C(C)(C)C)C(=O)C(=O)NC1CC1 (some centres undefined) | 808 nM |  |  | 
13 | CCCC(NC(=O)[C@@H]1C2CCCC2CN1C(=O)[C@@H](NC(=O)[C@@H](NC(=O)CCCCc1nnn[nH]1)C(C)C)C(C)C)C(=O)C(=O)NC(C)CC (some centres undefined) | 248 nM | > 50000 nM | > 50000 nM | 
14 | CCC[C@H](NC(=O)[C@@H]1C2CCCC2CN1C(=O)[C@@H](NC(=O)[C@@H](NC(=O)c1cnccn1)C(C)C)C(C)C)C(=O)C(=O)NC1CC1 (some centres undefined) | 123 nM | > 50000 nM | 11600 nM | 
15 | CCCC(NC(=O)[C@@H]1C2CCCC2CN1C(=O)[C@@H](NC(=O)[C@@H](NC(=O)CCCCc1nnn[nH]1)C(C)C)C(C)C)C(=O)C(=O)N[C@@H](C)c1ccncc1 (some centres undefined) | 112 nM |  |  | 
16 | CCC[C@H](NC(=O)[C@@H]1C2CCCC2CN1C(=O)[C@@H](NC(=O)[C@@H](NC(=O)CCCCc1nnn[nH]1)C(C)C)C(C)C)C(=O)C(=O)NC1CC1 (some centres undefined) |  | > 50000 nM | > 50000 nM | 7
